This note sets out measurements from BindingDB's records for doi:10.1016/j.bmcl.2009.02.053 (University of Warsaw, 2009).

Assay [1] concerns the target T1, Eukaryotic translation initiation factor 4E (Oryctolagus cuniculus, UniProt P29338). The assay is described as follows: Inhibition of eukaryotic initiation factor 4E in micrococcal nuclease-pretreated rabbit reticulocyte lysate assessed as inhibition of m7,3'-O-GpppG-capped 5'UTRbetaglob-LUC mRNA translation by luciferase-based luminometry.
The target of assay [2] is T1, Eukaryotic translation initiation factor 4E. The assay is described as follows: Inhibition of eukaryotic initiation factor 4E in micrococcal nuclease-pretreated rabbit reticulocyte lysate assessed as inhibition of m7,3'-O-GpppG-capped 5'UTRbetaglob-LUC mRNA translation treated 60 mins before mRNA addition by luciferase-based luminometry.

T1 sequence (P29338 whole entry): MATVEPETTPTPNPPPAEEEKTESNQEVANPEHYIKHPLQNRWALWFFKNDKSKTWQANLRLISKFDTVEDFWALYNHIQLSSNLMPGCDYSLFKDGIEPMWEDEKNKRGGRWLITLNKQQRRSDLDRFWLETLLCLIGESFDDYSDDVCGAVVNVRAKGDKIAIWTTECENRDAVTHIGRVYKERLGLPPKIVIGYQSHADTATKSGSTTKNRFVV

On to `C[n+]1cn(C2OC(COP(=O)(S)OP(=O)(O)OP(=O)(O)O)C(O)C2O)c2nc(N)[n-]c(=O)c21` [2-amino-9-[(2R,3R,4S,5R)-3,4-dihydroxy-5-{[({[(phosphonatooxy)phosphinato]oxy}(sulfanidyl)phosphoryl)oxy]methyl}oxolan-2-yl]-7-methyl-6-oxido-9H-purin-7-ium], for which the half-maximal inhibitory concentration (IC50) in assay [1] was determined as 1.44 µM; in assay [2] it was 1.3 µM.
